Measured values published in patent US11547681B2, “N-acylethanolamide derivatives and uses thereof” (ELIEM THERAPEUTICS, INC., priority 2016, dated 2023).

Tests used:
in vitro [1] = conditions: both, human; for Measured concentration of PEA (analyte) / % Remaining of Initial: 1 μM
Summary of the method: (§1)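 Test article (1 μM final) pre-equilibrated with intestinal S9 at 37 °C, then reaction started with cofactor cocktail; sampled at 0, 10, 20, 30 and 60 min and quenched in acidified acetonitrile. Prodrug and released PEA quantified by LC-MS/MS; half-life from single-phase exponential fit of percent remaining versus time 0.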

in vitro [2] = conditions: male, Sprague-Dawley, rat; for Measured concentration of PEA (analyte) / % Remaining of Initial: 1 μM
Summary of the method: as §1

in vitro [3] = conditions: male, Beagle, dog; for Measured concentration of PEA (analyte) / % Remaining of Initial: 1 μM
Summary of the method: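 Test article at 1 μM final was incubated at 37° C with S9 reaction mixture, and the reaction was started by adding cofactor cocktail. Samples taken at 0, 10, 20, 30 and 60 min were quenched in acidified acetonitrile, and prodrug and PEA were measured by LC-MS/MS. Half-life came from single-phase exponential decay of percent remaining versus time 0.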

CCCCCCCCCCCCCCCC(=O)NCCOC(=O)CCC(=O)OC(COC(=O)CCC)COC(=O)CCC [Compound I-16]
Measured concentration of PEA (analyte) (in vitro [1]; 0 min): 0 µM | Measured concentration of PEA (analyte) (in vitro [1]; 10 min): 0.17 µM | Measured concentration of PEA (analyte) (in vitro [1]; 20 min): 0.29 µM | Measured concentration of PEA (analyte) (in vitro [1]; 30 min): 0.33 µM | Measured concentration of PEA (analyte) (in vitro [1]; 60 min): 0.32 µM | % Remaining of Initial (in vitro [1]; s9, 0 h): 100% | % Remaining of Initial (in vitro [1]; s9, 10 min): 3.2% | % Remaining of Initial (in vitro [1]; s9, 20 min): <1.0% | % Remaining of Initial (in vitro [1]; s9, 0.5 h): <1.0% | % Remaining of Initial (in vitro [1]; s9, 1 h): <1.0% | microsomal CLint at 1 μM (in vitro [1]; s9, CLint): > 69.3 µL/min/mg | half-life at 1 μM (in vitro [1]; s9, Half-life): < 10 min | Measured concentration of PEA (analyte) (in vitro [2]; 0 min): 0 µM | Measured concentration of PEA (analyte) (in vitro [2]; 10 min): 0.20 µM | Measured concentration of PEA (analyte) (in vitro [2]; 20 min): 0.28 µM | Measured concentration of PEA (analyte) (in vitro [2]; 30 min): 0.34 µM | Measured concentration of PEA (analyte) (in vitro [2]; 60 min): 0.38 µM | % Remaining of Initial (in vitro [2]; s9, 0 h): 100% | % Remaining of Initial (in vitro [2]; s9, 10 min): <1.0% | % Remaining of Initial (in vitro [2]; s9, 20 min): <1.0% | % Remaining of Initial (in vitro [2]; s9, 0.5 h): <1.0% | % Remaining of Initial (in vitro [2]; s9, 1 h): <1.0% | microsomal CLint at 1 μM (in vitro [2]; s9, CLint): > 691 µL/min/mg | half-life at 1 μM (in vitro [2]; s9, Half-life): < 1 min | Measured concentration of PEA (analyte) (in vitro [3]; 0 min): 0.042 µM | Measured concentration of PEA (analyte) (in vitro [3]; 10 min): 0.50 µM | Measured concentration of PEA (analyte) (in vitro [3]; 20 min): 0.57 µM | Measured concentration of PEA (analyte) (in vitro [3]; 30 min): 0.54 µM | Measured concentration of PEA (analyte) (in vitro [3]; 60 min): 0.68 µM | % Remaining of Initial (in vitro [3]; s9, 0 h): 100% | % Remaining of Initial (in vitro [3]; s9, 10 min): 1.7% | % Remaining of Initial (in vitro [3]; s9, 20 min): <1.0% | % Remaining of Initial (in vitro [3]; s9, 0.5 h): <1.0% | % Remaining of Initial (in vitro [3]; s9, 1 h): <1.0% | microsomal CLint at 1 μM (in vitro [3]; s9, CLint): > 69.3 µL/min/mg | half-life at 1 μM (in vitro [3]; s9, Half-life): < 10 min
